# Columns and labels:
# [1] = tested on: rat renal grafts from DBD donation or DCD donation
# Procedure: Rat renal transplantation was performed. Rat donor kidneys were transplanted orthotopically into recipients by using standard microvascular techniques. […] After the specified period of cold ischemia, the recipient's left kidney was extracted, and the donor renal vein was connected to the recipient renal vein through end-to-end anastomosis. The arterial anastomosis between the donor aortic patch was connected to the recipient aorta in an end-to-side manner. Urinary reconstruction was performed by ureter-to-bladder anastomosis. The total surgical ischemia time was restricted to <45 min. The contralateral kidney was removed immediately after engraftment.
# Tumor necrosis factor-α (TNF-α) in the culture medium were detected by ELISA (Human TNF-α ELISA kits, INVITROGEN®, UK). Rat lung tissue and serum TNF-α were measured by ELISA (Rat TNF-α ELISA kits, INVITROGEN®, UK).
# MTS was performed on paraffin-embedded tissue according to the manufacturer's instructions (MTS kit; SIGMA-ALDRICH®, Ltd., Poole, UK). The amount of collagen deposition (percentage of MTS-stained area) was then digitally quantified with ImageJ software (U.S. National Institutes of Health, Bethesda, Md., USA).
# Blood samples were collected when the animals were euthanized. After centrifugation, serum urea and creatinine concentrations were measured with an AU2700 analyzer (OLYMPUS).
# (§1) A rat renal graft machine perfusion model was developed, (see FIG. 1B) to simulate the renal graft preservation process. A series of experiments were conducted using the Fischer-to-Lewis allogeneic renal transplant model. Grafts from donors after brain death (DBD) or cardiac arrest (DCD) were used. The preserving solution was saturated with dexmedetomidine at 0.1 nM[32]. The grafts were extracted and then machine-perfused with UW solution at 4° C.[18] with a flow rate of 1.5-2 ml/min [39] for 4 hours and then kept in the preserving solution until 24 hours. Grafts were then transplanted into Lewis recipient immediately following extraction (cold-ischemia 0 hr), or stored in preservative solution for 24 hr (cold-ischemia 24 hr), The orthotopic renal transplantation into Lewis recipients was conducted and their contralateral kidneys were removed at the end of surgery. The recipient received cyclosporine A (5 mg/kg/day intramuscular injection per day) for 10 days to prevent acute immune rejection.
# With respect to FIGS. 4A-4J, Fischer rat renal grafts from DBD donation or DCD donation were stored in UW preservative solution at 4° C., saturated with DEX for up to 24 hrs (Cold ischemia CI 24 hr), grafts harvested from donor (cold ischemia CI 0 hr) serves as control. (A and B) Serum creatinine and urea concentration were analyzed 24 hours after transplantation (n=6). (C and D) Tissue cytokine TNF-α and IL-1β concentration was assessed by ELISA. (E) TUNEL staining of renal tubules in renal cortices 24 hours after transplantation. Scale bar=50 μm. In DCD grafts, Infiltrated CD68+ macrophages (Red fluoresce; F) and renal fibrosis (blue MTS staining; G) on day 8 after transplantation were assessed. In both DCD and DBD grafts, (H) Analysis of the percentage of TUNEL+ tubular cells in renal cortices. (I) The number of CD68+ macrophage, and (J) the area of MTS staining. Data is expressed as mean±SD (n=6). […] CI: cold ischemia, Vh: Vehicle, Dex: Dexmedetomidine.
# [2] = tested on: rat renal grafts from DBD donation or DCD donation; conditions: Dex 0.1 nM in UW at 4° C., cold ischemia 24 hr, vs vehicle
# Procedure: For in vivo fluorescence or DAB staining, 25-μm frozen lung sections were incubated with rabbit anti-Rip1 (1:200, SANTA CRUZ BIOTECHNOLOGY®), rabbit anti-Rip3 (1:200, SANTA CRUZ BIOTECHNOLOGY®), mouse anti-HMGB-1 (1:200, Abcam), Goat anti-TLR-4 (1:200, SANTA CRUZ BIOTECHNOLOGY®), rabbit anti-Nrf-2 (1:200, SANTA CRUZ BIOTECHNOLOGY®), mouse anti-SOD-1 (1:200, Abcam), mouse anti-NQO-1 (1:200 Abcam), rabbit anti-3-nitrotyrosine (1:200, Abcam) and rabbit anti-4-hydroxynonenal (1:200, Abcam) at 4° C. overnight. After washing with PBST, the slides were incubated with fluorochrome-conjugated secondary antibodies (MILLIPORE™, UK). For double-labelled immunofluorescence, lung samples were incubated with the first primary antibody overnight, followed by the first secondary antibody, and then the second primary antibody and the second secondary antibody. The slides were counterstained with nuclear dye DAPI and mounted with […]® Mounting Medium (Vector lab, USA). Sections were examined using an OLYMPUS™ (Watford, UK) BX4 microscope under constant exposure level. Immunofluorescence was quantified using ImageJ (National Institutes of Health, Maryland, USA) and the background was subtracted. Ten representative regions per section (in vivo) or field (in vitro) were randomly selected by an assessor blinded to the treatment groups. Values were then calculated as percentages of the mean value for naïve controls and expressed as percentage fluorescence intensity.
# Lung alveolar cell death was detected by the in situ TUNEL assay (MILLIPORE™) according to the manufacturer's instructions. TUNEL nuclei were visualized by green FITC fluorescence.
# as §1
# [3] = after transplantation, graft stored with Dex 0.1 nM, CI 24 hr
# [4] = day 16 after surgery, graft stored with Dex 0.1 nM
compound,measurement,setting,value
Cc1cccc([C@H](C)c2cnc[nH]2)c1C [Dexmedetomidine],cell death (number of TUNEL+ cells) in renal cortices,"[1]; 24 hours after transplantation, graft stored with Dex 0.1 nM",reduced
same,tissue level of cytokine IL-1β (ELISA),[1]; [3],reduced tissue level
same,tissue level of cytokine TNF-α (ELISA),[1]; [3],reduced tissue level
same,renal functional recovery (serum creatinine and urea),"[1]; day 1 (24 hours) after transplantation, graft stored with Dex 0.1 nM, CI 24 hr",induced a quick functional recovery
same,macrophage infiltration (number of CD68+ cells),[1]; [4],attenuated
same,renal fibrosis (MTS staining),[1]; [4],attenuated
same,protection in ex vivo renal allograft from cardiac arrest donation,[1]; overall conclusion,conferred significant protection
same,"Heme oxygenase 1 (HO-1) expression, immunofluorescence",[2],significantly increased
same,"Nrf2 expression, immunofluorescence",[2],significantly increased
same,necroptosis (expression of MLKL),[2],suppressed necroptosis
same,"renal graft architecture / morphology (H&E staining, injury scoring)",[2],preserved the renal graft architecture
same,tissue injury in the renal cortex (TUNEL cell death staining),[2],reduced tissue injury in the renal cortex

# Reference: patent US20200329698A1, “COMPOSITIONS FOR ORGAN GRAFT PRESERVATION AND METHODS OF USE” (Nobilis Therapeutics, Inc., priority 2019, published 2020)
